2 compounds from US20220241429A1, “Antifolate-Carrying Nanoparticles and Their Use in Medicine” (priority 2018, published 2022) can be followed below.

One assay relates to Hep3B cells. The assay can be described thus: Cytotoxic or cytostatic activity on Hep3B cells. In kind it is cell-based. To be noted: Homo sapiens, Incubation time 72 hours, concentration range 40 pM to 500 μM. How it is done: (§1) The cytotoxic or cytostatic activity of methotrexate, the linker-modified methotrexate, MTX-(EG)3-NH2 and of MTX-(EG)3-NH2-loaded gold nanoparticles (GNPs) ([MTX-(EG)3-NHC(O)-(EG)8][alpha-Gall][COOH-(EG)8]@Au) was assessed by treatment of Hep3B and U87MG cells. Incubation time was 72 hours and the concentration range was 40 pM to 500 μM. The results are expressed as IC50 and are as follows: […]

In the next assay the test system is U87MG cells. As to the kind of experiment: Cytotoxic or cytostatic activity on U87MG cells. The class given is cell-based. The conditions noted are these: Homo sapiens, U-87 MG; Incubation time 72 hours, concentration range 40 pM to 500 μM. How it is done:
as §1

For the compound `CN(Cc1cnc2nc(N)nc(N)c2n1)c1ccc(C(=O)NC(CCC(=O)NCCCOCCOCCOCCCN)C(=O)O)cc1` (stereo not shown) [MTX-(EG)3-NH2, 4-[(3-{2-[2-(3-aminopropoxy)ethoxy]ethoxy}propyl)carbamoyl]-2-[(4-{[(2,4-diaminopteridin-6-yl)methyl](methyl)amino}phenyl)formamido]butanoic acid], the half-maximal inhibitory concentration (IC50) was in the range of 0.001 to 1 µM with Hep3B cells and 1 to 1000 µM in the assay on U87MG cells.
Regarding `CN(Cc1cnc2nc(N)nc(N)c2n1)c1ccc(C(=O)N[C@@H](CCC(=O)O)C(=O)O)cc1` [MTX, Methotrexate], the 50% inhibitory concentration (IC50) with Hep3B cells and with U87MG cells was 0.001 to 1 µM in each case.
